From patent US9695155B2, “Herbicidal substituted pyrimidinyloxy benzene compounds” (E. I. DU PONT DE NEMOURS AND COMPANY, priority 2013, dated 2017)

Assays:
barnyardgrass [1] = assay: Test A preemergence; format: in vivo, Echinochloa crus-galli; settings: Echinochloa crus-galli, pre-emergence, 240 h
Method in brief: (§1)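 Scoring: eye-based comparison with untreated controls, 0 for no effect through 100 for complete control, at about day 10. Treatments: directed soil spray preemergence; foliar spray postemergence on 2–10 cm plants at the one- to two-leaf stage. Medium: loam soil with sand.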

wheat = assay: Test A preemergence; format: in vivo, Triticum aestivum
Method in brief: as §1

large (Lg) crabgrass [2] = assay: Test A postemergence; format: in vivo, Digitaria sanguinalis; settings: Digitaria sanguinalis, post-emergence, 240 h
Method in brief: as §1

pigweed = assay: Test A postemergence; format: in vivo, Amaranthus retroflexus; settings: Amaranthus retroflexus, post-emergence
Method in brief: as §1

rice = assay: Test B flooded paddy test; format: in vivo, Oryza sativa; settings: Oryza sativa; Flood, 250 g ai/ha; 0 to 100 scale where 0 is no effect and 100 is complete control; read-out: Plant response rating, Rice
Method in brief: (§2)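 Seedlings are raised to two leaves, flooded to a depth of 3 cm and dosed by adding the compound to the floodwater. Water level is kept constant, and plants are scored visually versus controls 13–15 days later (0 = no effect, 100 = complete control).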

sedge, umbrella = assay: Test B flooded paddy test; format: in vivo, Cyperus difformis; settings: Cyperus difformis, Flood, 250 g ai/ha; 0 to 100 scale where 0 is no effect and 100 is complete control; read-out: Plant response rating, Sedge, Umbrella
Method in brief: as §2

blackgrass = assay: Test C postemergence; format: in vivo, Alopecurus myosuroides; settings: Alopecurus myosuroides, post-emergence
Method in brief: (§3)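 Seeds are planted in blended loam soil and sand and treated preemergence, while seedlings in a peat moss/vermiculite medium receive postemergence sprays at 2 to 18 cm height. All plants stay in the greenhouse for 13 to 15 days before visual comparison with controls on a 0–100 scale.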

Italian ryegrass = assay: Test C postemergence; format: in vivo, Lolium multiflorum; settings: Lolium multiflorum, post-emergence
Method in brief: as §3

galium = assay: Test C postemergence; format: in vivo, Galium aparine; settings: Galium, post-emergence
Method in brief: as §3

large (Lg) crabgrass [3] = assay: Test C postemergence; format: in vivo, Digitaria sanguinalis; settings: Digitaria sanguinalis, post-emergence
Method in brief: as §3

lambsquarters = assay: Test C postemergence; format: in vivo, Chenopodium album; settings: Chenopodium album, post-emergence
Method in brief: as §3

yellow nutsedge = assay: Test C postemergence; format: in vivo, Cyperus esculentus; settings: Cyperus, post-emergence
Method in brief: as §3

ragweed = assay: Test C postemergence; format: in vivo, Ambrosia elatior; settings: Ambrosia artemisiifolia, post-emergence
Method in brief: as §3

soybean = assay: Test C postemergence; format: in vivo, Glycine max; settings: Glycine max, post-emergence
Method in brief: as §3

barnyardgrass [4] = assay: Test C postemergence; format: in vivo, Echinochloa crus-galli; settings: Echinochloa crus-galli, post-emergence
Method in brief: as §3

## N#Cc1cccc(Oc2ncc(Cl)cn2)c1-n1cc(Br)cn1 [Compound 52, 2-(4-bromo-1H-pyrazol-1-yl)-3-[(5-chloro-2-pyrimidinyl)oxy]benzonitrile]
Barnyardgrass [1]; 125 g ai/ha, 0 to 100 scale where 0 is no effect and 100 is complete control, read-out: Plant response rating, Barnyardgrass
  pest or weed control at 125 g/ha: 90%
Barnyardgrass [1]; 500 g ai/ha, 0 to 100 scale, 0 no effect, 100 complete control, approx. 10 days, read-out: Barnyardgrass plant response rating
  pest or weed control at 500 g/ha: 100%
wheat; 125 g ai/ha, 0 to 100 scale where 0 is no effect and 100 is complete control
  Plant response rating, Wheat: 20
wheat; Triticum aestivum, pre-emergence, 240 h, 500 g ai/ha, 0 to 100 scale, 0 no effect, 100 complete control, approx. 10 days, read-out: Wheat plant response rating
  plant injury at 500 g/ha: 80%
Large (Lg) crabgrass [2]; 125 g ai/ha, 0 to 100 scale where 0 is no effect and 100 is complete control, read-out: Plant response rating, Crabgrass, Large
  pest or weed control at 125 g/ha: 90%
Large (Lg) crabgrass [2]; 500 g ai/ha, 0 to 100 scale, 0 no effect, 100 complete control, read-out: Plant response rating Crabgrass, Large
  pest or weed control at 500 g/ha: 100%
pigweed; 125 g ai/ha, 0 to 100 scale where 0 is no effect and 100 is complete control, read-out: Plant response rating, Pigweed
  pest or weed control at 125 g/ha: 100%
pigweed; 240 h, 500 g ai/ha, 0 to 100 scale, 0 no effect, 100 complete control, read-out: Plant response rating Pigweed
  pest or weed control at 500 g/ha: 100%
rice
  plant injury at 250 g/ha: 20%
sedge, umbrella
  pest or weed control at 250 g/ha: 95%
blackgrass; 125 g ai/ha, postemergence, read-out: Plant response rating (0 to 100), Blackgrass
  pest or weed control at 125 g/ha: 10%
blackgrass; 250 g ai/ha, postemergence, read-out: Plant response rating (0 to 100), Blackgrass
  pest or weed control at 250 g/ha: 25%
blackgrass; Postemergence, 31 g ai/ha, scale 0 to 100 (0 no effect, 100 complete control), 13 to 15 days, read-out: Plant response rating, Blackgrass
  pest or weed control at 31 g/ha: 5%
blackgrass; Postemergence, 62 g ai/ha, scale 0 to 100 (0 no effect, 100 complete control), read-out: Plant response rating, Blackgrass
  pest or weed control at 62 g/ha: 5%
Italian ryegrass; 125 g ai/ha, postemergence, read-out: Plant response rating (0 to 100), Ryegrass, Italian
  pest or weed control at 125 g/ha: 10%
Italian ryegrass; 250 g ai/ha, postemergence, read-out: Plant response rating (0 to 100), Ryegrass, Italian
  pest or weed control at 250 g/ha: 10%
Italian ryegrass; Postemergence, 31 g ai/ha, scale 0 to 100 (0 no effect, 100 complete control), 13 to 15 days, read-out: Plant response rating, Ryegrass, Italian
  pest or weed control at 31 g/ha: 0%
Italian ryegrass; Postemergence, 62 g ai/ha, scale 0 to 100 (0 no effect, 100 complete control), read-out: Plant response rating, Ryegrass, Italian
  pest or weed control at 62 g/ha: 5%
galium; 125 g ai/ha, postemergence, read-out: Plant response rating (0 to 100), Galium
  pest or weed control at 125 g/ha: 85%
galium; 250 g ai/ha, postemergence, read-out: Plant response rating (0 to 100), Galium
  pest or weed control at 250 g/ha: 90%
galium; Postemergence, 31 g ai/ha, scale 0 to 100 (0 no effect, 100 complete control), 13 to 15 days, read-out: Plant response rating, Galium
  pest or weed control at 31 g/ha: 60%
galium; Postemergence, 62 g ai/ha, scale 0 to 100 (0 no effect, 100 complete control), read-out: Plant response rating, Galium
  pest or weed control at 62 g/ha: 60%
Large (Lg) crabgrass [3]; 125 g ai/ha, postemergence, read-out: Plant response rating (0 to 100), Crabgrass, Large
  pest or weed control at 125 g/ha: 20%
Large (Lg) crabgrass [3]; 250 g ai/ha, postemergence, read-out: Plant response rating (0 to 100), Crabgrass, Large
  pest or weed control at 250 g/ha: 40%
Large (Lg) crabgrass [3]; Postemergence, 31 g ai/ha, scale 0 to 100 (0 no effect, 100 complete control), 13 to 15 days, read-out: Plant response rating, Crabgrass, Large
  pest or weed control at 31 g/ha: 5%
Large (Lg) crabgrass [3]; Postemergence, 62 g ai/ha, scale 0 to 100 (0 no effect, 100 complete control), read-out: Plant response rating, Crabgrass, Large
  pest or weed control at 62 g/ha: 15%
lambsquarters; 125 g ai/ha, postemergence, read-out: Plant response rating (0 to 100), Lambsquarters
  pest or weed control at 125 g/ha: 90%
lambsquarters; 250 g ai/ha, postemergence, read-out: Plant response rating (0 to 100), Lambsquarters
  pest or weed control at 250 g/ha: 100%
lambsquarters; Postemergence, 31 g ai/ha, scale 0 to 100 (0 no effect, 100 complete control), 13 to 15 days, read-out: Plant response rating, Lambsquarters
  pest or weed control at 31 g/ha: 85%
lambsquarters; Postemergence, 62 g ai/ha, scale 0 to 100 (0 no effect, 100 complete control), read-out: Plant response rating, Lambsquarters
  pest or weed control at 62 g/ha: 90%
Yellow nutsedge; 125 g ai/ha, postemergence, read-out: Plant response rating (0 to 100), Nutsedge, Yellow
  pest or weed control at 125 g/ha: 5%
Yellow nutsedge; 250 g ai/ha, postemergence, read-out: Plant response rating (0 to 100), Nutsedge, Yellow
  pest or weed control at 250 g/ha: 30%
Yellow nutsedge; Postemergence, 31 g ai/ha, scale 0 to 100 (0 no effect, 100 complete control), 13 to 15 days, read-out: Plant response rating, Nutsedge, Yellow
  pest or weed control at 31 g/ha: 0%
Yellow nutsedge; Postemergence, 62 g ai/ha, scale 0 to 100 (0 no effect, 100 complete control), read-out: Plant response rating, Nutsedge, Yellow
  pest or weed control at 62 g/ha: 5%
ragweed; 125 g ai/ha, postemergence, read-out: Plant response rating (0 to 100), Ragweed
  pest or weed control at 125 g/ha: 80%
ragweed; 250 g ai/ha, postemergence, read-out: Plant response rating (0 to 100), Ragweed
  pest or weed control at 250 g/ha: 95%
ragweed; Postemergence, 31 g ai/ha, scale 0 to 100 (0 no effect, 100 complete control), 13 to 15 days, read-out: Plant response rating, Ragweed
  pest or weed control at 31 g/ha: 40%
ragweed; Postemergence, 62 g ai/ha, scale 0 to 100 (0 no effect, 100 complete control), read-out: Plant response rating, Ragweed
  pest or weed control at 62 g/ha: 45%
soybean; 125 g ai/ha, postemergence, read-out: Plant response rating (0 to 100), Soybean
  Soybean plant response rating (crop injury, 0-100 scale) at 125 g/ha: 95%
soybean; 250 g ai/ha, postemergence
  Soybean plant response rating (crop injury, 0-100 scale) at 250 g/ha: 95%
soybean; Postemergence, 31 g ai/ha, scale 0 to 100 (0 no effect, 100 complete control), 13 to 15 days
  Soybean plant response rating (crop injury, 0-100 scale) at 31 g/ha: 40%
soybean; Postemergence, 62 g ai/ha, scale 0 to 100 (0 no effect, 100 complete control)
  Soybean plant response rating (crop injury, 0-100 scale) at 62 g/ha: 90%
Barnyardgrass [4]; 125 g ai/ha, postemergence, read-out: Plant response rating (0 to 100), Barnyardgrass
  pest or weed control at 125 g/ha: 5%
Barnyardgrass [4]; 250 g ai/ha, postemergence, read-out: Plant response rating (0 to 100), Barnyardgrass
  pest or weed control at 250 g/ha: 10%
Barnyardgrass [4]; Postemergence, 31 g ai/ha, scale 0 to 100 (0 no effect, 100 complete control), 13 to 15 days, read-out: Plant response rating, Barnyardgrass
  pest or weed control at 31 g/ha: 0%
Barnyardgrass [4]; Postemergence, 62 g ai/ha, scale 0 to 100 (0 no effect, 100 complete control), read-out: Plant response rating, Barnyardgrass
  pest or weed control at 62 g/ha: 5%
